Results published in patent US20230085307A1, “PYRIDAZINONE COMPOUND AND HERBICIDE” (NISSAN CHEMICAL CORPORATION, priority 2019, published 2023).

Experiments:
barnyard grass [1] = assay: Test Example 3: herbicidal effect by foliage application, Wagner pot (Table 18, symbol H); type: in vivo, barnyard grass (Echinochloa crus-galli); details: 320 g/ha
Outline: (§1)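 Plants were sown in alluvial soil held under 0.1–0.5 cm standing water and grown 14 days in a greenhouse at 25–30 °C. An emulsifiable formulation, water-diluted to the set dose, was then sprayed onto the foliage, and effects were scored three weeks later using previously defined criteria.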

Chinese sprangletop = assay: Test Example 3: herbicidal effect by foliage application, Wagner pot (Table 18, symbol D); type: in vivo, chinese sprangletop (Leptochloa chinensis); details: 320 g/ha
Outline: as §1

rice flat sedge = assay: Test Example 3: herbicidal effect by foliage application, Wagner pot (Table 18, symbol E); type: in vivo, rice flat sedge (Cyperus iria); details: 320 g/ha
Outline: as §1

southern crabgrass [2] = assay: Test Example 4: herbicidal effect by soil treatment (Table 19, symbol F); type: in vivo, southern crabgrass (Digitaria ciliaris); details: amount of applied herbicide 320 g/ha
Outline: (§2)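 Step 1: sow seeds in sterilized diluvial soil, cover ~1.5 cm. Step 2: spray diluted emulsion onto soil surface at predetermined rate. Step 3: greenhouse, 25–30° C, three weeks. Step 4: grade effect on each plant by earlier criteria.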

green foxtail [3] = assay: Test Example 4: herbicidal effect by soil treatment (Table 19, symbol G); type: in vivo, green foxtail (Setaria viridis); details: amount of applied herbicide 320 g/ha
Outline: as §2

barnyard grass [4] = assay: Test Example 4: herbicidal effect by soil treatment (Table 19, symbol H); type: in vivo, barnyard grass (Echinochloa crus-galli); details: amount of applied herbicide 320 g/ha
Outline: as §2

wild oat [5] = assay: Test Example 4: herbicidal effect by soil treatment (Table 19, symbol I); type: in vivo, wild oat (Avena fatua); details: amount of applied herbicide 320 g/ha
Outline: as §2

blackgrass [6] = assay: Test Example 4: herbicidal effect by soil treatment (Table 19, symbol J); type: in vivo, blackgrass (Alopecurus myosuroides); details: amount of applied herbicide 320 g/ha
Outline: as §2

Italian ryegrass [7] = assay: Test Example 4: herbicidal effect by soil treatment (Table 19, symbol K); type: in vivo, Italian ryegrass (Lolium multiflorum); details: amount of applied herbicide 320 g/ha
Outline: as §2

windgrass [8] = assay: Test Example 4: herbicidal effect by soil treatment (Table 19, symbol L); type: in vivo, windgrass (Apera spica-venti); details: amount of applied herbicide 320 g/ha
Outline: as §2

velvetleaf [9] = assay: Test Example 4: herbicidal effect by soil treatment (Table 19, symbol M); type: in vivo, velvetleaf (Abutilon theophrasti); details: amount of applied herbicide 320 g/ha
Outline: as §2

redroot pigweed [10] = assay: Test Example 4: herbicidal effect by soil treatment (Table 19, symbol N); type: in vivo, redroot pigweed (Amaranthus retroflexus); details: amount of applied herbicide 320 g/ha
Outline: as §2

lambsquarters [11] = assay: Test Example 4: herbicidal effect by soil treatment (Table 19, symbol O); type: in vivo, lambsquarters (Chenopodium album); details: amount of applied herbicide 320 g/ha
Outline: as §2

chickweed [12] = assay: Test Example 4: herbicidal effect by soil treatment (Table 19, symbol P); type: in vivo, common chickweed (Stellaria media); details: amount of applied herbicide 320 g/ha
Outline: as §2

persian speedwell [13] = assay: Test Example 4: herbicidal effect by soil treatment (Table 19, symbol R); type: in vivo, Persian speedwell (Veronica persica); details: amount of applied herbicide 320 g/ha
Outline: as §2

southern crabgrass [14] = assay: Test Example 5: herbicidal effect by foliage application, plastic box (Table 20, symbol F); type: in vivo, southern crabgrass (Digitaria ciliaris)
Outline: (§3)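 Foliar spray test: emulsion formulation diluted in water to a set application rate, sprayed onto 14-day-old plants raised in diluvial soil at 25° C to 30° C under glass. Both herbicidal effect and crop effect rated visually three weeks later.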

green foxtail [15] = assay: Test Example 5: herbicidal effect by foliage application, plastic box (Table 20, symbol G); type: in vivo, green foxtail (Setaria viridis)
Outline: as §3

barnyard grass [16] = assay: Test Example 5: herbicidal effect by foliage application, plastic box (Table 20, symbol H); type: in vivo, barnyard grass (Echinochloa crus-galli)
Outline: as §3

wild oat [17] = assay: Test Example 5: herbicidal effect by foliage application, plastic box (Table 20, symbol I); type: in vivo, wild oat (Avena fatua)
Outline: as §3

blackgrass [18] = assay: Test Example 5: herbicidal effect by foliage application, plastic box (Table 20, symbol J); type: in vivo, blackgrass (Alopecurus myosuroides)
Outline: as §3

Italian ryegrass [19] = assay: Test Example 5: herbicidal effect by foliage application, plastic box (Table 20, symbol K); type: in vivo, Italian ryegrass (Lolium multiflorum)
Outline: as §3

windgrass [20] = assay: Test Example 5: herbicidal effect by foliage application, plastic box (Table 20, symbol L); type: in vivo, windgrass (Apera spica-venti)
Outline: as §3

velvetleaf [21] = assay: Test Example 5: herbicidal effect by foliage application, plastic box (Table 20, symbol M); type: in vivo, velvetleaf (Abutilon theophrasti)
Outline: as §3

redroot pigweed [22] = assay: Test Example 5: herbicidal effect by foliage application, plastic box (Table 20, symbol N); type: in vivo, redroot pigweed (Amaranthus retroflexus); details: amount of applied herbicide 320 g/ha; foliage application after 14-day growth; evaluated three weeks after application
Outline: as §3

lambsquarters [23] = assay: Test Example 5: herbicidal effect by foliage application, plastic box (Table 20, symbol O); type: in vivo, lambsquarters (Chenopodium album)
Outline: as §3

chickweed [24] = assay: Test Example 5: herbicidal effect by foliage application, plastic box (Table 20, symbol P); type: in vivo, common chickweed (Stellaria media); details: amount of applied herbicide 320 g/ha; foliage application after 14-day growth; evaluated three weeks after application
Outline: as §3

persian speedwell [25] = assay: Test Example 5: herbicidal effect by foliage application, plastic box (Table 20, symbol R); type: in vivo, Persian speedwell (Veronica persica)
Outline: as §3

late watergrass = assay: Test Example 1: herbicidal activity, application before weed generation under submerged conditions (Table 16, symbol A); type: in vivo, late watergrass (Echinochloa oryzicola); details: amount of applied herbicide 320 g/ha
From the text: (§4) [Test Example 1] Herbicidal Activity Test by Application before Weed Generation under Submerged Conditions After alluvial soil was placed into 1/10000 are of Wagner pot, water was poured and mixed to form a submerged condition having a water depth of 4 cm. Seeds of late watergrass, Japanese bulrush, and oval-leafed pondweed were sowed in a mixed manner in the aforementioned pot, and then 2.5 leaf stage rice plant seedlings were transplanted thereto. On the day of sowing seeds, the emulsion agent of the compound of the present invention prepared according to Formulation Example 2 was diluted with water so as to achieve a predetermined herbicide amount, and the diluted emulsion agent was applied to the surface of the water. The pot was placed in a greenhouse at 25° C. to 30° C. for growth of the plants. Three weeks after the herbicide application, the effect of the herbicide on each plant was evaluated according to the following criteria. Evaluation Criteria 5: Herbicidal rate of 90% or more (almost completely withered) 4: Herbicidal rate of 70% or more and less than 90% 3: Herbicidal rate of 40% or more and less than 70% 2: Herbicidal rate of 20% or more and less than 40% 1: Herbicidal rate of 5% or more and less than 20% 0: Herbicidal rate of 5% or less (almost no effect)

Japanese bulrush = assay: Test Example 1: herbicidal activity, application before weed generation under submerged conditions (Table 16, symbol B); type: in vivo, Japanese bulrush (Schoenoplectus juncoides); details: amount of applied herbicide 320 g/ha
From the text: as §4

[26] = amount of applied herbicide 320 g/ha, foliage application after 14-day growth, evaluated three weeks after application
[27] = foliage application, 320 g/ha, three weeks after application

For `COc1cc(F)ccc1-c1sc2cc(Cl)c(Cl)cc2c1-c1c(O)c(C)nn(C)c1=O` [5-051], the “herbicidal effect on barnyard grass (H)” value (barnyard grass [1]) was 4 (Herbicidal rate of 70% or more and less than 90%), the “herbicidal effect on Chinese sprangletop (D)” value (Chinese sprangletop) was 3 (Herbicidal rate of 40% or more and less than 70%) and the “herbicidal effect on rice flat sedge (E)” value (rice flat sedge) was 3 (Herbicidal rate of 40% or more and less than 70%). The “F: southern crabgrass, herbicidal effect grade” value (southern crabgrass [2]) was 0 (Herbicidal rate of 5% or less (almost no effect)), the “G: green foxtail, herbicidal effect grade” value (green foxtail [3]) was 2 (Herbicidal rate of 20% or more and less than 40%) and the “H: barnyard grass, herbicidal effect grade” value (barnyard grass [4]) was 0 (Herbicidal rate of 5% or less (almost no effect)). The “I: wild oat, herbicidal effect grade” value (wild oat [5]) was 0 (Herbicidal rate of 5% or less (almost no effect)), the “J: blackgrass, herbicidal effect grade” value (blackgrass [6]) was 0 (Herbicidal rate of 5% or less (almost no effect)) and the “K: Italian ryegrass, herbicidal effect grade” value (Italian ryegrass [7]) was 0 (Herbicidal rate of 5% or less (almost no effect)). For the same compound, the “L: windgrass, herbicidal effect grade” value (windgrass [8]) was 0 (Herbicidal rate of 5% or less (almost no effect)), the “M: velvetleaf, herbicidal effect grade” value (velvetleaf [9]) was 0 (Herbicidal rate of 5% or less (almost no effect)) and the “N: redroot pigweed, herbicidal effect grade” value (redroot pigweed [10]) was 1 (Herbicidal rate of 5% or more and less than 20%). The “O: lambsquarters, herbicidal effect grade” value (lambsquarters [11]) was 4 (Herbicidal rate of 70% or more and less than 90%), the “P: chickweed, herbicidal effect grade” value (chickweed [12]) was 1 (Herbicidal rate of 5% or more and less than 20%) and the “R: persian speedwell, herbicidal effect grade” value (persian speedwell [13]) was 0 (Herbicidal rate of 5% or less (almost no effect)). The “Herbicidal effect by foliage application, F: southern crabgrass” value (southern crabgrass [14]; [26]) was 2 (Herbicidal rate of 20% or more and less than 40%), the “Herbicidal effect by foliage application, G: green foxtail” value (green foxtail [15]; [26]) was 4 (Herbicidal rate of 70% or more and less than 90%) and the “Herbicidal effect by foliage application, H: barnyard grass” value (barnyard grass [16]; [26]) was 3 (Herbicidal rate of 40% or more and less than 70%). For the same compound, the “Herbicidal effect by foliage application, I: wild oat” value (wild oat [17]; [26]) was 0 (Herbicidal rate of 5% or less (almost no effect)), the “Herbicidal effect by foliage application, J: blackgrass” value (blackgrass [18]; [26]) was 5 (Herbicidal rate of 90% or more (almost completely withered)) and the “Herbicidal effect by foliage application, K: Italian ryegrass” value (Italian ryegrass [19]; [26]) was 0 (Herbicidal rate of 5% or less (almost no effect)). The “Herbicidal effect by foliage application, L: windgrass” value (windgrass [20]; [26]) was 4 (Herbicidal rate of 70% or more and less than 90%), the “Herbicidal effect by foliage application, M: velvetleaf” value (velvetleaf [21]; [26]) was 5 (Herbicidal rate of 90% or more (almost completely withered)) and the “Herbicidal effect by foliage application, N: redroot pigweed” value (redroot pigweed [22]) was 3 (Herbicidal rate of 40% or more and less than 70%). The “Herbicidal effect by foliage application, O: lambsquarters” value (lambsquarters [23]; [26]) was 3 (Herbicidal rate of 40% or more and less than 70%), the “Herbicidal effect by foliage application, P: chickweed” value (chickweed [24]) was 5 (Herbicidal rate of 90% or more (almost completely withered)) and the “Herbicidal effect by foliage application, R: persian speedwell” value (persian speedwell [25]; [26]) was 3 (Herbicidal rate of 40% or more and less than 70%).
`COc1cc2sc(-c3ccccc3OC)c(-c3c(O)c(C)nn(C)c3=O)c2cc1Cl` [5-068] was tested, and the “Herbicidal effect, A: late watergrass” value (late watergrass) was 0 (Herbicidal rate of 5% or less (almost no effect)), the “Herbicidal effect, B: Japanese bulrush” value (Japanese bulrush) was 5 (Herbicidal rate of 90% or more (almost completely withered)) and the “herbicidal effect on barnyard grass (H)” value (barnyard grass [1]) was 4 (Herbicidal rate of 70% or more and less than 90%). For the same compound, the “herbicidal effect on Chinese sprangletop (D)” value (Chinese sprangletop) was 0 (Herbicidal rate of 5% or less (almost no effect)), the “herbicidal effect on rice flat sedge (E)” value (rice flat sedge) was 1 (Herbicidal rate of 5% or more and less than 20%) and the “herbicidal effect on southern crabgrass (F)” value (southern crabgrass [14]; [27]) was 1 (Herbicidal rate of 5% or more and less than 20%). The “herbicidal effect on green foxtail (G)” value (green foxtail [15]; [27]) was 3 (Herbicidal rate of 40% or more and less than 70%), the “herbicidal effect on barnyard grass (H)” value (barnyard grass [16]; [27]) was 3 (Herbicidal rate of 40% or more and less than 70%) and the “herbicidal effect on wild oat (I)” value (wild oat [17]; [27]) was 0 (Herbicidal rate of 5% or less (almost no effect)). For the same compound, the “herbicidal effect on blackgrass (J)” value (blackgrass [18]; [27]) was 0 (Herbicidal rate of 5% or less (almost no effect)), the “herbicidal effect on Italian ryegrass (K)” value (Italian ryegrass [19]; [27]) was 0 (Herbicidal rate of 5% or less (almost no effect)) and the “herbicidal effect on windgrass (L)” value (windgrass [20]; [27]) was 0 (Herbicidal rate of 5% or less (almost no effect)). For the same compound, the “herbicidal effect on velvetleaf (M)” value (velvetleaf [21]; [27]) was 1 (Herbicidal rate of 5% or more and less than 20%), the “herbicidal effect on lambsquarters (O)” value (lambsquarters [23]; [27]) was 3 (Herbicidal rate of 40% or more and less than 70%) and the “herbicidal effect on persian speedwell (R)” value (persian speedwell [25]; [27]) was 2 (Herbicidal rate of 20% or more and less than 40%).
